Test results from PMC12566703, “Design, Synthesis, In Vitro and In Silico Biological Evaluation of New Pyridine-2,5-Dicarboxylates Esters Bearing Natural Source Fragments as Anti-Trypanosomatid Agents” (Pharmaceutics, 2025).
Like-named read-outs stand apart in the source and are kept apart here.

Key:
[1] = test system: T. cruzi (A1) epimastigotes; test: In vitro trypanocidal activity, Alamar Blue assay, 48 h; format: cell-based, Trypanosoma cruzi; settings: for IC50: 48 h; for Selectivity Index T. cruzi A1: CC50 (J774.2)/IC50
Method: (§1) Both strains were maintained in liver infusion tryptose (LIT) medium supplemented with 10% FBS and 0.1% penicillin-streptomycin. They were preserved by transferring 1 × 10^6 parasites/mL into a new culture medium every week. […] The metabolic activity was determined by the Alamar Blue assay. Briefly, after the incubation period, 20 µL of 2.5 mM resazurin solution was added to each well and incubated for 3 h. Three independent experiments were performed in triplicate. The half-maximum inhibitory concentration (IC50) was determined using probit analysis.

[2] = test system: T. cruzi (NINOA) epimastigotes; test: as above; format: cell-based, Trypanosoma cruzi; settings: for Selectivity Index T. cruzi NINOA: CC50 (J774.2)/IC50; for IC50: 48 h, read-out: T. cruzi IC50 (µM ± SD) NINOA
Method: as §1

[3] = test system: L. mexicana (MHOM/MX/2017/UABJO17FCQEPS) (FCQEPS) promastigotes; test: In vitro leishmanicidal activity, MTT method, 48 h; format: cell-based, Leishmania mexicana; settings: for Selectivity Index L. mexicana FCQEPS: CC50 (J774.2)/IC50; for IC50: Leishmania mexicana, 48 h, read-out: L. mexicana IC50 (µM ± SD) FCQEPS; for IC50 / Leishmanicidal activity class in words, FCQEPS strain: promastigotes, FCQEPS strain; for Leishmanicidal activity class in words, FCQEPS strain: classes by IC50
Method: (§2) To determine the leishmanicidal activity of pyridine-2,5-dicarboxylates, the parasites, in their logarithmic growth phase (5 × 10^5 parasites/mL), were cultured in 96-well microliter plates with the corresponding pyridine-2,5-dicarboxylate compound at different concentrations (0.78–100 µM). Compounds were dissolved in DMSO in a final volume of 200 µL for 48 h at 26 °C. Parasites treated with DMSO (0.2%) were used as a negative control, while treatments with Glucantime and Amphotericin B, at the same concentrations, were used as positive controls. The metabolic activity of the cells was determined using the 3-(4,5-Dimethylthiazol-2-yl)-2,5-diphenyltetrazolium bromide (MTT) method. IC50 was determined using probit analysis. Three independent experiments were performed in triplicate, and the data were analyzed for statistical significance (p < 0.05) using Biostat 5.3.0 software.

[4] = test system: L. mexicana (MNYC/BZ/62/M379) (M379) promastigotes; test: In vitro leishmanicidal activity, MTT method, 48 h; format: cell-based, Leishmania mexicana; settings: for Selectivity Index L. mexicana M379: CC50 (J774.2)/IC50; for IC50: Leishmania mexicana, 48 h, read-out: L. mexicana IC50 (µM ± SD) M379; for IC50 / Leishmanicidal activity class in words, M379 strain: promastigotes, M379 strain; for Leishmanicidal activity class in words, M379 strain: classes by IC50
Method: as §2

[5] = Cytotoxicity assay, MTT method, 48 h; format: cell-based, murine; settings: mouse, J774.2 macrophage cells, J774.2 cell line, read-out: Macrophage J774.2 CC50 (µM ± SD)
Method: A cytotoxicity assay was performed using the murine macrophage J774.2 cell line, which was recloned from the original ascites and solid tumor J774.1 (according to the manufacturer). The cells were cultured in RPMI medium supplemented with 10% SBF, 100 U […] penicillin, 100 µg/mL streptomycin, and glutamine (2 mM), and 5% CO2 atmosphere. The medium was changed every 2–3 days. Macrophages were used at 1 × 10^6 cells and were incubated with compounds at different concentrations (0.75–100 µM, respectively) at 37 °C for 48 h in a 5% CO2 atmosphere. DMSO was used as a negative control (0.2%). The metabolic activity of macrophages was determined by the MTT method. The percentage of cell viability was calculated, and the half-maximal cytotoxic concentration (CC50) was determined using probit analysis. Three independent assays were conducted in triplicate.

[6] = Trypanosoma cruzi, epimastigotes, NINOA strain
[7] = Trypanosoma cruzi, epimastigotes, A1 strain, read-out: T. cruzi IC50 (µM ± SD) A1
[8] = epimastigotes, A1 strain, read-out: T. cruzi IC50 (µM ± SD) A1

SMILES | IC50 ([1]; Trypanosoma cruzi, read-out: T. cruzi IC50 (µM ± SD) A1, epimastigotes, A1 strain, 48 h) | IC50 ([1]; read-out: T. cruzi IC50 (µM ± SD) A1, epimastigotes, A1 strain) | Selectivity Index T. cruzi A1 [1] | Selectivity Index T. cruzi NINOA [2] | IC50 [2, 6] | IC50 ([2]; epimastigotes, NINOA strain) | Trypanocidal activity class in words, NINOA strain ([2]; epimastigotes, NINOA strain, classes by IC50) | Selectivity Index L. mexicana FCQEPS [3] | IC50 [3] | Leishmanicidal activity class in words, FCQEPS strain [3] | Selectivity Index L. mexicana M379 [4] | IC50 [4] | Leishmanicidal activity class in words, M379 strain [4] | CC50 at 48 h [5] | IC50 [1, 7] | IC50 [1, 8] | Trypanocidal activity class in words, A1 strain ([1]; epimastigotes, A1 strain, classes by IC50)
O=C(Cn1ccnc1[N+](=O)[O-])NCc1ccccc1 [Bzn, Benznidazole, reference compound] | < 39 µM | 39.08 ± 0.07 µM |  |  |  |  |  |  |  |  |  |  |  |  |  |  | 
CCOC(=O)c1cc(-c2ccccc2)c(C(=O)OCC)nc1C [Compound 3a, Diethyl 6-methyl-3-phenylpyridine-2,5-dicarboxylate] |  |  | >7.5 | >3.6 | ≤ 56.7 µM | 54.5 ± 2.36 µM | moderate activity | >1 | > 200 µM | did not have leishmanicidal activity | >1 | > 200 µM | did not have antiparasitic activity | > 200 µM |  |  | 
CCOC(=O)c1cc(-c2ccc(C)cc2)c(C(=O)OCC)nc1C [Compound 3b] |  |  | >1.9 | >3.3 | 59.3 µM | 59.4 ± 1.45 µM |  | >1 | > 200 µM |  | >1 | > 200 µM | did not have antiparasitic activity | > 200 µM | 106 ± 1.16 µM |  | 
CCOC(=O)c1cc(-c2ccc(F)cc2)c(C(=O)OCC)nc1C [Compound 3c] |  |  | >2.2 | >1.9 | 100 ± 1.86 µM |  |  | >1.7 | 118 ± 2.08 µM |  | >1 | > 200 µM | inactive | > 200 µM | 91.7 ± 1.72 µM |  | 
CCOC(=O)c1nc(C)c(C(=O)OCc2ccccc2)cc1-c1ccccc1 [Compound 4a, 5-Benzyl 2-ethyl 6-methyl-3-phenylpyridine-2,5-dicarboxylate] |  |  | >7.0 | >4.7 | ≤ 56.7 µM | 42.4 ± 1.88 µM |  | >1 | > 200 µM | did not have leishmanicidal activity | >1 | > 200 µM | did not have antiparasitic activity | > 200 µM | ≤ 56.7 µM | 28.5 ± 1.5 µM | 
CCOC(=O)c1nc(C)c(C(=O)OCc2ccccc2)cc1-c1ccc(C)cc1 [Compound 4b, 5-Benzyl 2-ethyl 6-methyl-3-(p-tolyl)pyridine-2,5-dicarboxylate] |  |  | >3.8 | >7.5 |  |  |  | >1 | > 200 µM |  | >1 | > 200 µM | did not have antiparasitic activity | > 200 µM | ≤ 56.7 µM | 52.6 ± 1.87 µM | 
CCOC(=O)c1nc(C)c(C(=O)OCc2ccccc2)cc1-c1ccc(F)cc1 [Compound 4c] |  |  | >1 | >1 | > 200 µM |  |  | >1 | > 200 µM |  | >1 | > 200 µM | inactive | > 200 µM | > 200 µM |  | 
CCOC(=O)c1nc(C)c(C(=O)OCc2ccc(C)cc2)cc1-c1ccccc1 [Compound 5a, 2-Ethyl 5-(4-methylbenzyl) 6-methyl-3-phenylpyridine-2,5-dicarboxylate] |  |  | >9.3 | >3.5 | ≤ 56.7 µM | 56.6 ± 1.26 µM |  | >2.1 | 95 ± 1.36 µM |  | >1 | > 200 µM | did not have antiparasitic activity | > 200 µM |  |  | 
CCOC(=O)c1nc(C)c(C(=O)OCc2ccc(C)cc2)cc1-c1ccc(C)cc1 [Compound 5b] |  |  | >1 | >1 | > 200 µM |  |  | >1 | > 200 µM |  | >1 | > 200 µM | did not have antiparasitic activity | > 200 µM | > 200 µM |  | completely lose their trypanocidal activity
CCOC(=O)c1nc(C)c(C(=O)OCc2ccc(C)cc2)cc1-c1ccc(F)cc1 [Compound 5c] |  |  | >9.6 | >1 | > 200 µM |  |  | >1 | > 200 µM | abolished their leishmanicidal activity | >1 | > 200 µM | inactive | > 200 µM | 20.8 ± 0.1 µM |  | 
CCOC(=O)c1nc(C)c(C(=O)OCc2ccc3c(c2)OCO3)cc1-c1ccccc1 [Compound 6a, 5-(Benzo[d][1,3]dioxol-5-ylmethyl) 2-ethyl 6-methyl-3-phenylpyridine-2,5-dicarboxylate] |  |  | >1 | >7.3 | < 28 µM | 27.2 ± 0.84 µM |  | >1 | > 200 µM | did not have leishmanicidal activity | >1 | > 200 µM | did not have antiparasitic activity | > 200 µM | > 200 µM |  | 
CCOC(=O)c1nc(C)c(C(=O)OCc2ccc3c(c2)OCO3)cc1-c1ccc(C)cc1 [Compound 6b] |  |  | >4.0 | >3.7 | 54 ± 2.29 µM |  |  | >1 | > 200 µM |  | >1 | > 200 µM | did not have antiparasitic activity | > 200 µM | 50.2 ± 2.31 µM |  | 
CCOC(=O)c1nc(C)c(C(=O)OCc2ccc3c(c2)OCO3)cc1-c1ccc(F)cc1 [Compound 6c] |  |  | >7.9 | >1 | > 200 µM |  |  | >1 | > 200 µM |  | >1 | > 200 µM | inactive | > 200 µM | 25.4 ± 0.6 µM |  | 
CCOC(=O)c1nc(C)c(C(=O)OC/C=C/c2ccccc2)cc1-c1ccccc1 [Compound 7a] |  |  | >1 | >7.20 | 27.8 ± 1.66 µM |  |  | >1 | > 200 µM | did not have leishmanicidal activity | >1 | > 200 µM | did not have antiparasitic activity | > 200 µM | > 200 µM |  | 
CC1CS(=O)(=O)CCN1/N=C/c1ccc([N+](=O)[O-])o1 (stereo not shown) [Nfx, Nifurtimox, reference compound] |  |  |  |  | 7.09 ± 0.12 µM |  |  |  |  |  |  |  |  |  | 19.3 ± 0.08 µM |  | 
